Reference: patent US20120040955A1 (priority 2009, published 2012)
pIC50: −log10 of the molar value.

Assays:
JAK2 = molecular target: T1, JAK2 (Homo sapiens, UniProt O60674); test: kinobeads assay (competition with affinity matrix in mixed Molt4/Ramos cell lysate, dot blot detection), JAK2; type: binding; conditions: activity level
T1 construct: endogenous in cells; host or cells: Mixed Molt4 / Ramos cell lysate (1:2)
Description: (§1) The compounds of the present invention as described in the previous examples were tested in a kinobeads assay as described for ZAP-70 (WO-A 2007/137867). Briefly, test compounds (at various concentrations) and the affinity matrix with the immobilized aminopyrido-pyrimidine ligand 24 were added to cell lysate aliquots and allowed to bind to the proteins in the lysate sample. After the incubation time the beads with captured proteins were separated from the lysate. Bound proteins were then eluted and the presence of, JAK2 and JAK3 was detected and quantified using specific antibodies in a dot blot procedure and the Odyssey infrared detection system. Dose response curves for individual kinases were generated and IC50 values calculated. Kinobeads assays for ZAP-70 (WO-A 2007/137867) and for kinase selectivity profiling (WO-A 2006/134056) have been previously described.
(§2) 5× DP buffer: 250 mM Tris-HCl pH 7.4, 25% Glycerol, 7.5 mM MgCl2, 750 mM NaCl, 5 mM Na3VO4; filter the 5× DP buffer through a 0.22 μm filter and store in aliquots at −80° C. The 5× DP buffer is diluted with H2O to 1× DP buffer containing 1 mM DTT and 25 mM NaF.
(§3) Stock solutions of test compounds were prepared in DMSO. In a 96 well plate 30 μl solution of diluted test compounds at 5 mM in DMSO were prepared. Starting with this solution a 1:3 dilution series (9 steps) was prepared. For control experiments (no test compound) a buffer containing 2% DMSO was used.
(§4) Molt4 cells (ATCC catalogue number CRL-1582) and Ramos cells (ATCC catalogue number CRL-1596) were grown in 1 litre Spinner flasks (Integra Biosciences, #182101) in suspension in RPMI 1640 medium (Invitrogen, #21875-034) supplemented with 10% Fetal Bovine Serum (Invitrogen) at a density between 0.15×10^6 and 1.2×10^6 cells/ml. Cells were harvested by centrifugation, washed once with 1× PBS buffer (Invitrogen, #14190-094) and cell pellets were frozen in liquid nitrogen and subsequently stored at −80° C. Cells were homogenized in a Potter S homogenizer in lysis buffer: 50 mM Tris-HCl, 0.8% NP40, 5% glycerol, 150 mM NaCl, 1.5 mM MgCl2, 25 mM NaF, 1 mM sodium vanadate, 1 mM DTT, pH 7.5. One complete EDTA-free tablet (protease inhibitor cocktail, Roche Diagnostics, 1873580) per 25 ml buffer was added. The material was dounced 10 times using a mechanized POTTER S, transferred to 50 ml falcon tubes, incubated for 30 minutes on ice and spun down for 10 min at 20,000 g at 4° C. (10,000 rpm in Sorvall SLA600, precooled). The supernatant was transferred to an ultracentrifuge (UZ)-polycarbonate tube (Beckmann, 355654) and spun for 1 hour at 100.000 g at 4° C. (33.500 rpm in Ti50.2, precooled). The supernatant was transferred again to a fresh 50 ml falcon tube, the protein concentration was determined by a Bradford assay (BioRad) and samples containing 50 mg of protein per aliquot were prepared. The samples were immediately used for experiments or frozen in liquid nitrogen and stored frozen at −80° C.
(§5) Cell lysate (approximately 50 mg protein per plate) was thawed in a water bath at room temperature and then kept on ice. To the thawed cell lysate 1× DP 0.8% NP40 buffer containing protease inhibitors (1 tablet for 25 ml buffer; EDTA-free protease inhibitor cocktail; Roche Diagnostics 1873580) was added in order to reach a final protein concentration of 5 mg/ml total protein. The diluted cell lysate was stored on ice. Mixed Molt4/Ramos lysate was prepared by combining one volume of Molt4 lysate and two volumes of Ramos lysate (ratio 1:2).
(§6) To a 96 well filter plate (Multiscreen HTS, BV Filter Plates, Millipore #MSBVN1250) were added per well: 100 μl affinity matrix (3% beads slurry), 3 μl of compound solution, and 50 μl of diluted lysate. Plates were sealed and incubated for three hours in a cold room on a plate shaker (Heidolph tiramax 1000) at 750 rpm. Afterwards the plate was washed twice with 230 μl washing buffer (1× DP 0.4% NP40). […]

JAK3 = molecular target: T2, JAK3 (Homo sapiens, UniProt P52333); test: kinobeads assay (competition with affinity matrix in mixed Molt4/Ramos cell lysate, dot blot detection), JAK3; type: binding; conditions: activity level
T2 construct: endogenous in cells; host or cells: Mixed Molt4 / Ramos cell lysate (1:2)
T2 sequence (P52333 1-1124): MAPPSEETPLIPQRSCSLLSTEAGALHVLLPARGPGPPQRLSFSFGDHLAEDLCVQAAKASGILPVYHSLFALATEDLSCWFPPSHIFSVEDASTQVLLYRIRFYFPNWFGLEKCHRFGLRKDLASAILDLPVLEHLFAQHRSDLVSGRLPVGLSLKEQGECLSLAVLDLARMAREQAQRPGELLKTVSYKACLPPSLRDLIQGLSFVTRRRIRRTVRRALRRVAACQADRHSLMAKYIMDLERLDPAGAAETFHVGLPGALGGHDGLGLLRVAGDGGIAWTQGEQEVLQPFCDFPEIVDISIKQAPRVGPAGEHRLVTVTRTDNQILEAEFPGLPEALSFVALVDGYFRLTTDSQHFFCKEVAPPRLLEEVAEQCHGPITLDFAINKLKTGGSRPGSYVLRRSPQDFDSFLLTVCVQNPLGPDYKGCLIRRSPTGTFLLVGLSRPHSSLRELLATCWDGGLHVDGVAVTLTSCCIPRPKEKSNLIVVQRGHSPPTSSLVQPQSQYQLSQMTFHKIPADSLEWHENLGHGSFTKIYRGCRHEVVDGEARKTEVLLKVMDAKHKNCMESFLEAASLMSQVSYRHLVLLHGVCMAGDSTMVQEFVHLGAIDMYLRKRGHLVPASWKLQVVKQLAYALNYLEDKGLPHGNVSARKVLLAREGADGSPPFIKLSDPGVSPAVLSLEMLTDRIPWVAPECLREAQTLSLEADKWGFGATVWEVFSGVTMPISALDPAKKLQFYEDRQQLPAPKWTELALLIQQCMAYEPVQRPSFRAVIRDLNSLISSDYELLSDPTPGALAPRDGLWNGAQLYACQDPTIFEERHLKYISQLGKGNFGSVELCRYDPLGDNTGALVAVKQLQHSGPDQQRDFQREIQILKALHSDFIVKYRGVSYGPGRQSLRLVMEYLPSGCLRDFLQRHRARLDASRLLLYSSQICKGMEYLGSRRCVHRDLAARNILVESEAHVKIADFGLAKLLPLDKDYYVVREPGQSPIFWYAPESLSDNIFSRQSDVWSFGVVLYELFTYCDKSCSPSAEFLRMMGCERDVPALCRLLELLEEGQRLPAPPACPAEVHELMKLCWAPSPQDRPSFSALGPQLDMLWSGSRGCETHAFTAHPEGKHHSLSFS
Description: as §1, §2, §3, §4, §5, §6

T1 sequence (O60674 whole entry): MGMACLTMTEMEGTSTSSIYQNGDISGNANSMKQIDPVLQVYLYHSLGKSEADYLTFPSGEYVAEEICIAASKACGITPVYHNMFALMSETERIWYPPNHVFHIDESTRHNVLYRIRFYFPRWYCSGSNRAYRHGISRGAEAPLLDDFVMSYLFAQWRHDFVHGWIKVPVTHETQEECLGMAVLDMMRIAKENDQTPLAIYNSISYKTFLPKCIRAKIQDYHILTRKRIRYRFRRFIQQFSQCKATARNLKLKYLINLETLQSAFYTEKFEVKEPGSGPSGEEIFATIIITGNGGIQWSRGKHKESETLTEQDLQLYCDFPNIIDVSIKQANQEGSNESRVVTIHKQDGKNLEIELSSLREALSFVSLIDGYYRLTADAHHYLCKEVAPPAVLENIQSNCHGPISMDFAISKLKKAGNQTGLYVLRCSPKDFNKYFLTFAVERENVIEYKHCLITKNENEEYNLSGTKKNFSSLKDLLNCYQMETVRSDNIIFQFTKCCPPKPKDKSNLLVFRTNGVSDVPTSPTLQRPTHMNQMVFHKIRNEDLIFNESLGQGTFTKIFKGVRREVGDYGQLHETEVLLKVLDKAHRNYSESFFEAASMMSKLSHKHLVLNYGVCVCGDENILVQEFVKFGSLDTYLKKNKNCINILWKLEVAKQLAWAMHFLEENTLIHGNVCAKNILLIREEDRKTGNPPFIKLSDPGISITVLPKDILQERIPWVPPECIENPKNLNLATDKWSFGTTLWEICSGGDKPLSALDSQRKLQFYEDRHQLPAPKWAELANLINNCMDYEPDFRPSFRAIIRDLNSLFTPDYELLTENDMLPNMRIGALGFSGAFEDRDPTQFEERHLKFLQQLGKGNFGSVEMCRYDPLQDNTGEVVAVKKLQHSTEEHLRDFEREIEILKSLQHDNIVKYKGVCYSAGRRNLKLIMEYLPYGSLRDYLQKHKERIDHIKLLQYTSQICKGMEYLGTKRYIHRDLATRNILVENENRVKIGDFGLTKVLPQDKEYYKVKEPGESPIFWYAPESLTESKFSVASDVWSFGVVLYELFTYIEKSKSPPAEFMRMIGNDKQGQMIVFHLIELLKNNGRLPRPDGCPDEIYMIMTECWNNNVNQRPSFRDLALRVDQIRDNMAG

Structure (SMILES)	pIC50 (JAK2)	pIC50 (JAK3)
CS(=O)(=O)Nc1ccccc1Nc1nc(Nc2ccc(N3CCOCC3)cc2F)ncc1F [Example 2, N-(2-(5-fluoro-2-(2-fluoro-4-morpholinophenylamino)pyrimidin-4-ylamino)phenyl)methanesulfonamide]	< 5.00	6.00 to 7.00
COc1ccc(Nc2nc(Nc3cc(-n4cnnn4)ccc3F)ncc2F)c(NS(C)(=O)=O)c1 [Example 5, N-(2-(5-fluoro-2-(2-fluoro-5-(1H-tetrazol-1-yl)phenylamino)pyrimidin-4-ylamino)-5-methoxyphenyl)methanesulfonamide]	5.00 to 6.00	> 7.00
CS(=O)(=O)Nc1ccccc1Nc1nc(Nc2ccc(C#N)cc2F)ncc1Cl [Example 26, N-(2-(5-chloro-2-(4-cyano-2-fluorophenylamino)pyrimidin-4-ylamino)phenyl)methanesulfonamide]	< 5.00	6.00 to 7.00
CC(C)NC(=O)c1ccc(F)c(Nc2ncc(F)c(Nc3ccccc3NS(C)(=O)=O)n2)c1 [Example 31]	< 5.00	6.00 to 7.00
CS(=O)(=O)Nc1ccccc1Nc1nc(Nc2cc(C#N)ccc2F)ncc1Cl [Example 28, N-(2-(5-chloro-2-(5-cyano-2-fluorophenylamino)pyrimidin-4-ylamino)phenyl)methanesulfonamide]	< 5.00	> 7.00
Cc1cccc(Nc2nc(Nc3cc(-n4cnnn4)ccc3F)ncc2Cl)c1NS(C)(=O)=O [Example 9, N-(2-(5-chloro-2-(2-fluoro-5-(1H-tetrazol-1-yl)phenylamino)pyrimidin-4-ylamino)-6-methylphenyl)methanesulfonamide]	6.00 to 7.00	> 7.00
COc1ccc(Nc2nc(Nc3cc(-n4cnnn4)ccc3F)ncc2Cl)c(NS(C)(=O)=O)c1 [Example 10, N-(2-(5-chloro-2-(2-fluoro-5-(1H-tetrazol-1-yl)phenylamino)pyrimidin-4-ylamino)-5-methoxyphenyl)methanesulfonamide]	6.00 to 7.00	> 7.00
CS(=O)(=O)Nc1ccccc1Nc1nc(Nc2cc(C(N)=O)ccc2F)ncc1Cl [Example 18, 3-(5-chloro-4-(2-(methylsulfonamido)phenylamino)pyrimidin-2-ylamino)-4-fluorobenzamide]	< 5.00	> 7.00
CS(=O)(=O)Nc1ccccc1Nc1nc(Nc2cc(-n3cnnn3)ccc2F)ncc1Cl [Example 7, N-(2-(5-chloro-2-(2-fluoro-5-(1H-tetrazol-1-yl)phenylamino)pyrimidin-4-ylamino)phenyl)methanesulfonamide]	6.00 to 7.00	> 7.00
CNC(=O)c1ccc(F)c(Nc2ncc(Cl)c(Nc3ccccc3NS(C)(=O)=O)n2)c1 [Example 21, 3-(5-chloro-4-(2-(methylsulfonamido)phenylamino)pyrimidin-2-ylamino)-4-fluoro-N-methybenzamide]	5.00 to 6.00	> 7.00

Other lines, results leading:

pIC50 (JAK2)	pIC50 (JAK3)	Structure (SMILES)
< 5.00	> 7.00	CCNC(=O)c1ccc(Nc2ncc(Cl)c(Nc3cccc(F)c3NS(C)(=O)=O)n2)c(F)c1 [Example 60, 4-((5-chloro-4-((3-fluoro-2-(methylsulfonamido)phenyl)amino)pyrimidin-2-yl)amino)-N-ethyl-3-fluorobenzamide]
5.00 to 6.00	6.00 to 7.00	CNC(=O)c1ccc(F)c(Nc2ncc(Cl)c(Nc3cc(F)c(F)cc3NS(C)(=O)=O)n2)c1 [Example 63, 3-(5-chloro-4-(4,5-difluoro-2-(methylsulfonamido)phenylamino)pyrimidin-2-ylamino)-4-fluoro-N-methylbenzamide]
5.00 to 6.00	> 7.00	CCNC(=O)c1ccc(Nc2ncc(Cl)c(Nc3ccccc3NS(C)(=O)=O)n2)c(F)c1 [Example 61, 4-((5-chloro-4-((2-(methylsulfonamido)phenyl)amino)pyrimidin-2-yl)amino)-N-ethyl-3-fluorobenzamide]
5.00 to 6.00	> 7.00	CNC(=O)c1cccc(Nc2ncc(Cl)c(Nc3ccccc3NS(C)(=O)=O)n2)c1F [Example 56, 3-(5-chloro-4-(2-(methylsulfonamido)phenylamino)pyrimidin-2-ylamino)-2-fluoro-N-methylbenzamide]
5.00 to 6.00	> 7.00	CC(C)NC(=O)c1ccc(Nc2ncc(Cl)c(Nc3ccccc3NS(C)(=O)=O)n2)c(F)c1F [Example 58, 4-((5-chloro-4-((2-(methylsulfonamido)phenyl)amino)pyrimidin-2-yl)amino)-2,3-difluoro-N-isopropylbenzamide]
5.00 to 6.00	6.00 to 7.00	CS(=O)(=O)Nc1c(F)cc(F)cc1Nc1nc(Nc2cc(C(=O)NC3CC3)ccc2F)ncc1Cl [Example 62, 3-((5-chloro-4-((3,5-difluoro-2-(methylsulfonamido)phenyl)amino)pyrimidin-2-yl)amino)-N-cyclopropyl-4-fluorobenzamide]
< 5.00	> 7.00	CCN(CC)C(=O)c1ccc(F)c(Nc2ncc(Cl)c(Nc3ccccc3NS(=O)(=O)CC)n2)c1 [Example 40, 3-(5-chloro-4-(2-(ethylsulfonamido)phenylamino)pyrimidin-2-ylamino)-N,N-diethyl-4-fluorobenzamide]
< 5.00	6.00 to 7.00	CS(=O)(=O)Nc1ccccc1Nc1nc(Nc2cc(C(=O)NC3CC3)ccc2F)ncc1F [Example 32, 3-(5-fluoro-4-(2-(methylsulfonamido)phenylamino)pyrimidin-2-ylamino)-N-cyclopropyl-4-fluorobenzamide]
< 5.00	> 7.00	CS(=O)(=O)Nc1ccccc1Nc1nc(Nc2cc(C(=O)N3CCOCC3)ccc2F)ncc1Cl [Example 54, N-(2-(5-chloro-2-(2-fluoro-5-(morpholine-4-carbonyl)phenylamino)pyrimidin-4-ylamino)phenyl)methanesulfonamide]
